Here are results for 9 compounds from ChEMBL document CHEMBL1122779, “Antiinflammatory agents. 3. Synthesis and pharmacological evaluation of 2-amino-3-benzoylphenylacetic acid and analogues” (J Med Chem, 1984).

Data set [1] has as its system Rattus norvegicus. In words: Percent change in avg. volume of pleural fluid at a dose 4 mg/kg of indomethacin and 5-h response is evaluated by Evans blue-carrageenan induced pleural effusion assay. The data set is classed as functional.
The test system of data set [2] is Rattus norvegicus. The data set is described as follows: Percent change in average volume of pleural fluid at a dose of 4.0 mg/kg and 5-h response by Evans blue-carrageenan induced pleural effusion assay. The data set is classed as functional.
In data set [3] the test system is Rattus norvegicus. The data set is described as follows: Percent change in avg. volume of pleural fluid at a dose of 4.0 mg/kg and 5-h response is evaluated by Evans blue-carrageenan induced pleural effusion assay. The data set is classed as functional.
Data set [4] concerns Rattus norvegicus. The data set is described as follows: Percent change in average volume of pleural fluid at a dose 4 mg/kg of indomethacin and 5-h response is evaluated by Evans blue-carrageenan induced pleural effusion assay. In kind it is functional.
The next data set addresses T1, Cyclooxygenase (Bos taurus, UniProt O62664+O62698).
T1 sequence (O62664 whole entry): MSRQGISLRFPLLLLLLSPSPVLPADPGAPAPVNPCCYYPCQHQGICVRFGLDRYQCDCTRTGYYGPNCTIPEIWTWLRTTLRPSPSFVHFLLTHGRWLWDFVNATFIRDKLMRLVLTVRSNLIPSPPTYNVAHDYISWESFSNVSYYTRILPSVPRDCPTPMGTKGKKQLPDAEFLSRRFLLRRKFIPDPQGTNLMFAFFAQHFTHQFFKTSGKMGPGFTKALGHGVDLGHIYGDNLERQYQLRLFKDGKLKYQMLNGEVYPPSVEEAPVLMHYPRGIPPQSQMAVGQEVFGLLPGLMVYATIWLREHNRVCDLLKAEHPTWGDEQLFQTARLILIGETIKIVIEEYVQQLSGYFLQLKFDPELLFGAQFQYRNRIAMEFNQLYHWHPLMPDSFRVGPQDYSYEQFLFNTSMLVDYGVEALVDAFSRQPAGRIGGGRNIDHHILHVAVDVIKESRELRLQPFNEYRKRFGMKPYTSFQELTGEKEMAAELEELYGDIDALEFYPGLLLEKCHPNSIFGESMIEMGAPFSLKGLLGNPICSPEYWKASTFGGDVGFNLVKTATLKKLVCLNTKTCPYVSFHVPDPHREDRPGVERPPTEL
T1 sequence (O62698 whole entry): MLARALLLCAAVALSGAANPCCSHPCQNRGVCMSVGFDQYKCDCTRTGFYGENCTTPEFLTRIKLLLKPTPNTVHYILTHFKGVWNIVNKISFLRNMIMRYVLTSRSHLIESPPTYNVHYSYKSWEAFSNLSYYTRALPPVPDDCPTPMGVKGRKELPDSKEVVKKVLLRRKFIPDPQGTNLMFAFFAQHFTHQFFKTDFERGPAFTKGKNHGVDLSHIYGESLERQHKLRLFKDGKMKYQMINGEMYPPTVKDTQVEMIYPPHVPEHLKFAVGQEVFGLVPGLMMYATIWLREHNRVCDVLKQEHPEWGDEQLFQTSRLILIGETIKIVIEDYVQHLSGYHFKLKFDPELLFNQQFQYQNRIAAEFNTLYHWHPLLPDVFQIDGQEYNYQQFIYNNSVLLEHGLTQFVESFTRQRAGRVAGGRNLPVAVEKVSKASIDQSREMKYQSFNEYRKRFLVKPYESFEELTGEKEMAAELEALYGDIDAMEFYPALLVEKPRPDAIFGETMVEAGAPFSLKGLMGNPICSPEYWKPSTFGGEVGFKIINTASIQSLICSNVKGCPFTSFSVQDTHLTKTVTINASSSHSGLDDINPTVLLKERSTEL

The nature of data set [5]: Chronic therapeutic index as ratio of potency in adjuvant-induced arthritis assay to that of potency in intestinal toxicity assay. The settings on record: read-out: Chronic TI.
In data set [6] the test system is Mus musculus. In words: Oral analgesic activity was determined in mice by the acetylcholine-induced abdominal constriction assay upon ip administration of acetylcholine bromide 5 hours following oral administration. In kind it is functional. The settings on record: Abdomen.
The subject of data set [7] is Rattus norvegicus. The data set is described as follows: Percent change in avg. volume of pleural fluid at a dose of 0.16 mg/kg and 5-h response is evaluated by Evans blue-carrageenan induced pleural effusion assay.
The subject of data set [8] is Rattus norvegicus. The data set is described as follows: Evaluated for chronic intestinal toxicity (multiple oral dose) in rats. The data set is classed as organism-based. Conditions: in vivo.
Data set [9] is filed under the species Rattus norvegicus. The data set is described as follows: Evaluated for acute potency in pleural effusion assay. In kind it is functional.
The subject of data set [10] is Mus musculus. The data set is described as follows: Oral analgesic activity was determined in mice by the acetylcholine-induced abdominal constriction assay upon ip administration of acetylcholine bromide 20 min following oral administration. In kind it is functional. The settings on record: Abdomen.
The test system of data set [11] is Rattus norvegicus. In words: Acute gastric toxicity (single oral dose) in male fasted rats. In kind it is organism-based, Stomach. Conditions: in vivo.
A short description of data set [12]: Acute therapeutic index as ratio of potency in pleural effusion to that of potency in gastric toxicity assay. The settings on record: Stomach; read-out: Acute TI. The data set is classed as tissue-based.
For data set [13], the species on record is Rattus norvegicus. In words: Evaluated for chronic potency in adjuvant arthritis assay. In kind it is functional.
The test system of data set [14] is Rattus norvegicus. The data set is described as follows: Percent change in average volume of pleural fluid at a dose of 100 mg/kg and 5-h response by Evans blue-carrageenan induced pleural effusion assay. The data set is classed as functional.

Description for Cyclooxygenase: Inhibition of prostaglandin G/H synthase obtained from bovine seminal vesicles.

For the compound `Nc1cccc(C(=O)c2ccccc2)c1CC(=O)[O-].[Na+]`, the Change is listed as -35% with Rattus norvegicus [1] and -2% with Rattus norvegicus [2].

As to `Nc1ccc(C(=O)c2ccccc2)cc1CC(=O)O`, the Change is reported as 11% with Rattus norvegicus [3] and -43% in the data set with Rattus norvegicus [4].

One may read the IC50 as the midpoint of a concentration-inhibition curve. Low readings indicate inhibition by little substance, high ones a need for much substance. `COc1cc(CC(=O)[O-])c(N)c(C(=O)c2ccccc2)c1.[Na+]`: the Change in the data set on Rattus norvegicus [1] was -48%; in the data set with Rattus norvegicus [2], -18%. On Cyclooxygenase, this compound gave an IC50 of 5400 nM.

For orientation: ED50 means the midpoint of the dose-response relation. Take `Nc1c(CC(=O)[O-])cccc1C(=O)c1ccc(Br)cc1.Nc1c(CC(=O)[O-])cccc1C(=O)c1ccc(Br)cc1.O.O.O.[Na+].[Na+]` [BROMFENAC SODIUM]: the selectivity ratio in [5] is 3.2; in [12], 5.4. Further, the figures for the ED50 with Mus musculus [6] and in the data set on Mus musculus [10] were 0.13 mg/kg and 0.07 mg/kg, respectively. In addition, the Change is recorded as -27% in the data set on Rattus norvegicus [7], -41% in the data set with Rattus norvegicus [4] and -43% in the data set on Rattus norvegicus [2]. In the data set with Rattus norvegicus [8], this compound showed an Intestinal toxicity of 1.8. For the same compound, the Potency in the data set filed under Rattus norvegicus [9] turned out to be 7.5; in the data set filed under Rattus norvegicus [13] it was 5.8. Also, at Cyclooxygenase, the IC50 is 80 nM. Further, the Gastric toxicity with Rattus norvegicus [11] came to 1.4.

With `Nc1c(CC(=O)[O-])cccc1C(=O)c1ccc(Cl)cc1.[Na+]`, the selectivity ratio in data set [5] was 1.6; in data set [12], 4.3. Further, the 50% effective dose (ED50) in the data set on Mus musculus [6] was 0.93 mg/kg; in the data set with Mus musculus [10], 0.1 mg/kg. Further, the Change is on record as -16% in the data set on Rattus norvegicus [7], -38% in the data set with Rattus norvegicus [14], -33% with Rattus norvegicus [4] and -29% in the data set with Rattus norvegicus [2]. This compound yielded an Intestinal toxicity in the data set with Rattus norvegicus [8] of 1.4. Besides, the Potency is given as 3.8 in the data set filed under Rattus norvegicus [9] and 2.2 in the data set listed under Rattus norvegicus [13]. Further, on Cyclooxygenase, the IC50 is 300 nM. In the data set on Rattus norvegicus [11], this compound yielded a Gastric toxicity of 0.9.

Turning to `Nc1cc(C(=O)c2ccccc2)ccc1CC(=O)[O-].[Na+]`, the Change was -2% with Rattus norvegicus [14] and -31% in the data set with Rattus norvegicus [3].

Turning to `Nc1ccc(CC(=O)O)cc1C(=O)c1ccccc1`, the figures for the Change with Rattus norvegicus [1] and in the data set with Rattus norvegicus [2] were -31% and -4%, respectively.

For `Nc1c(CC(=O)[O-])cc(Cl)cc1C(=O)c1ccc(Cl)cc1.[Na+]`, the selectivity ratio in [5] is 1.4; in data set [12], 3.8. Also, the median effective dose (ED50) in the data set with Mus musculus [6] was found to be 0.31 mg/kg; with Mus musculus [10] it was 0.23 mg/kg. In addition, the values for the Change with Rattus norvegicus [7], in the data set with Rattus norvegicus [4] and with Rattus norvegicus [2] were -18%, -32% and -41%, respectively. In the data set with Rattus norvegicus [8], this compound had an Intestinal toxicity of 1.2. The values for the Potency in the data set listed under Rattus norvegicus [9] and in the data set listed under Rattus norvegicus [13] were 4.6 and 1.7, respectively. On Cyclooxygenase, the half-inhibitory concentration (IC50) stood at 300 nM. The same compound came in with a Gastric toxicity with Rattus norvegicus [11] of 1.2.

Consider `Nc1c(CC(=O)[O-])cccc1C(=O)c1ccc(I)cc1.[Na+]`, for which the selectivity ratio in [5] was found to be 2.5; in [12] it was 1.3. The 50% effective dose (ED50) was 0.18 mg/kg with Mus musculus [6] and 0.13 mg/kg with Mus musculus [10]. For the same compound, the Change is -17% in the data set on Rattus norvegicus [7], -44% in the data set with Rattus norvegicus [14], -32% in the data set on Rattus norvegicus [4] and -31% in the data set with Rattus norvegicus [2]. In the data set on Rattus norvegicus [8], this compound gave an Intestinal toxicity of 3.3. In addition, the Potency in the data set listed under Rattus norvegicus [9] came out at 6.9; in the data set listed under Rattus norvegicus [13] it was 8.1. At Cyclooxygenase, this compound showed a half-inhibitory concentration (IC50) of 70 nM. In addition, the Gastric toxicity with Rattus norvegicus [11] turned out to be 5.3.
